This passage reports Ki, EC50 and IC50 results from US10501421B1, “Substituted benzimidazoles as modulators of Ras signaling” (VANDERBILT UNIVERSITY, priority 2017, dated 2019).

Usually pKi stands for −log10 of the Ki, conventionally taken in molar units. The pEC50 is the negative decadic logarithm of the EC50, by convention in mol/L.

For one assay, the target named is T1, Son of Sevenless (SOS) (Homo sapiens, UniProt Q07889).
T1 sequence (Q07889 564-1049 limits assumed): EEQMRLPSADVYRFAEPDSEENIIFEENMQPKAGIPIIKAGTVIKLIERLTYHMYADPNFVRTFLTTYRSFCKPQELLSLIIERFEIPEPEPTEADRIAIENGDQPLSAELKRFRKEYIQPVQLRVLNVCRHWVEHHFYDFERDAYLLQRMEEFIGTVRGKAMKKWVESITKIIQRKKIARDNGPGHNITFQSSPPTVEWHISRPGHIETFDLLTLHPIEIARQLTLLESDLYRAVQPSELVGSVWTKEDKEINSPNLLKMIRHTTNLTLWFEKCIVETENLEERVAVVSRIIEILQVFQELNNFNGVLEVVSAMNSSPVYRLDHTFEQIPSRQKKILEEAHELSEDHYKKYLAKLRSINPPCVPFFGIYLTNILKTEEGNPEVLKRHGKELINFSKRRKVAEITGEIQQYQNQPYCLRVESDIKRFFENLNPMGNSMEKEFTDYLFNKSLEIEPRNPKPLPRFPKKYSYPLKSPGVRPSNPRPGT
Put plainly: Binding to SOS, fluorescence polarization anisotropy (FPA) probe displacement. Conditions: displacement of FITC-conjugated probe (Example 285), affinity calculated from IC50. Summed up:
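A FITC-conjugated probe compound was incubated with SOS in buffer, and its displacement was tracked as a change in fluorescence anisotropy across a test-compound dose range. IC50 came from a four-parameter variable-slope fit, and binding affinity was calculated from it.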

For assay [1], the target named is Ras GEF SOS (Son of Sevenless) (Homo sapiens, UniProt Q07889). In words: SOS-mediated nucleotide exchange on Ras (BODIPY-GDP fluorescence). In kind it is biochemical. Conditions: SOS-mediated exchange of BODIPY-GDP for GTP on Ras. Summed up: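 Ras loaded with BODIPY-GDP was mixed in buffer with test compound, then GTP and SOS. Fluorescence change from labeled GDP/GTP exchange was followed over time, and rates came from single-exponential fits. EC50 came from a four-parameter fit of mean rate against compound concentration.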

Assay [2] has as its system H727 lung cancer cell lines (G12V K-Ras mutation). Put plainly: Inhibition of cancer cell proliferation (CellTiter-Glo). The assay is classed as cell-based. Conditions: Homo sapiens, NCI-H727, 72 h, read-out: Cell proliferation activity (H727 cancer cell line proliferation IC50). The method, boiled down:
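H727 cells (K-Ras G12V), 1000/well, plated overnight then exposed to a compound dose range for 3 days at 37 °C. Proliferation by CellTiter-Glo, normalized to DMSO; IC50 from four-parameter variable-slope fit.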
(In general: ATP-based viability assays read luminescence as a measure of living cells.)

The mark [3] stands for this setting: H727 cells, 3 days treatment, CellTiter-Glo.

Each structure is given as a SMILES string. pEC50, pIC50, pKi: −log10 of the molar value. Where a name gives a salt, the structure may show the parent alone. Read-outs that look alike come from different tables or passages of the source.

Chain of Ras GEF SOS (Son of Sevenless) (P01112 1-166 partner limits assumed, one chain of several): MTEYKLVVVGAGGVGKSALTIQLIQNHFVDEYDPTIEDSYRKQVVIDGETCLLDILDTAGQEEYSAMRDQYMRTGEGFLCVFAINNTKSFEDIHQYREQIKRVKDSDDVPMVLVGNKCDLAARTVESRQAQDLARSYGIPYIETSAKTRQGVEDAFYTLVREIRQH

On to `Fc1ccc(Cn2c(N3CCNCC3)nc3c(-c4ccnn4-c4ccc(Br)cc4)cc(Cl)cc32)cc1Cl` [Example 170, 4-(1-(4-bromophenyl)-1H-pyrazol-5-yl)-6-chloro-1-(3-chloro-4-fluorobenzyl)-2-(piperazin-1-yl)-1H-benzo[d]imidazole trifluoroacetate], for which the pKi on Son of Sevenless (SOS) was more than 6.30. Besides, in assay [1], the pEC50 is 5.30 to 6.00. In assay [2], the pIC50 was 4.70 to 5.30.
As to `CCC[C@H](N)c1cc(Cl)cc2c1nc(N1CCNCC1)n2Cc1cc(C)c(F)c(C)c1` [Example 164, (S)-1-(6-chloro-1-(4-fluoro-3,5-dimethylbenzyl)-2-(piperazin-1-yl)-1H-benzo[d]imidazol-4-yl)butan-1-amine trifluoroacetate], the pKi at Son of Sevenless (SOS) is more than 6.30. For the same molecule, the negative-log EC50 (pEC50) in assay [1] is 5.30 to 6.00. Moreover, the pIC50 in assay [2] is more than 6.00.
As to `Cc1cc2c(nc(NCCN)n2Cc2ccc(F)c(Cl)c2)c(-c2ccccc2)c1C` [Example 111, N^1-(1-(3-chloro-4-fluorobenzyl)-5,6-dimethyl-4-phenyl-1H-benzo[d]imidazol-2-yl)ethane-1,2-diamine trifluoroacetate], the pKi at Son of Sevenless (SOS) is 5.30 to 6.00. Also, the pEC50 in assay [1] is 5.30 to 6.00. For the same molecule, the pIC50 in assay [2] was 5.30 to 6.00.
Consider `Cc1cc2c(nc(N3CCNCC3)n2Cc2ccc(F)c(Cl)c2)c(-c2ccc(CN)cc2)c1C` [Example 108, (4-(1-(3-chloro-4-fluorobenzyl)-5,6-dimethyl-2-(piperazin-1-yl)-1H-benzo[d]imidazol-4-yl)phenyl)methanamine trifluoroacetate], for which the pKi on Son of Sevenless (SOS) was 6.00 to 6.30. For the same molecule, the negative-log EC50 (pEC50) in assay [1] is more than 6.00. Further, the pIC50 in assay [2] was 5.30 to 6.00.
`Cc1cnc2nc(N3CCCC(N)C3)n(Cc3ccc(F)c(C)c3)c2c1` (stereo not drawn) [Example 240, 1-(1-(4-fluoro-3-methylbenzyl)-6-methyl-1H-imidazo[4,5-b]pyridin-2-yl)piperidin-3-amine]: the negative logarithm of the Ki (pKi) at Son of Sevenless (SOS) is less than 5.30. Besides, the negative logarithm of the EC50 (pEC50) in assay [1] is 5.30 to 6.00. The pIC50 in assay [2] (setting [3]) was 4.70 to 5.30.
On to `C=Cc1cc(Cn2c(N3CCNCC3)nc3cc(C)c(C)cc32)ccc1F` [Example 52, 1-(4-fluoro-3-vinylbenzyl)-5,6-dimethyl-2-(piperazin-1-yl)-1H-benzo[d]imidazole trifluoroacetate], for which the pKi on Son of Sevenless (SOS) was less than 5.30. Besides, the pEC50 in assay [1] is 4.52 to 5.30. In assay [2], the pIC50 is less than 4.70.
Regarding `Cc1cc(CN2CCC(O)CC2)c2nc(N3CCNCC3)n(Cc3cc(C)c(F)c(C)c3)c2c1` [Example 126, 1-((1-(4-fluoro-3,5-dimethylbenzyl)-6-methyl-2-(piperazin-1-yl)-1H-benzo[d]imidazol-4-yl)methyl)piperidin-4-ol trifluoroacetate], on Son of Sevenless (SOS), the negative-log Ki (pKi) was 5.30 to 6.00. Besides, in assay [1], the negative logarithm of the EC50 (pEC50) was 5.30 to 6.00. The pIC50 in assay [2] was 5.30 to 6.00.
As to `Cc1cc(-c2ccccc2F)c2nc(N3CCNCC3)n(Cc3ccc(F)c(Cl)c3)c2c1` [Example 119, 1-(3-chloro-4-fluorobenzyl)-4-(2-fluorophenyl)-6-methyl-2-(piperazin-1-yl)-1H-benzo[d]imidazole trifluoroacetate], the pKi on Son of Sevenless (SOS) is more than 6.30. Moreover, the pEC50 in assay [1] was 5.30 to 6.00. In assay [2], the pIC50 is less than 4.70.
For `Fc1ccc(Cn2c(NCC3CNC3)nc3ccc(Cl)cc32)cc1Cl` [Example 75, N-(azetidin-3-ylmethyl)-6-chloro-1-(3-chloro-4-fluorobenzyl)-1H-benzo[d]imidazol-2-amine trifluoroacetate], on Son of Sevenless (SOS), the negative-log Ki (pKi) was 5.30 to 6.00. In assay [1], this molecule showed a pEC50 of 5.30 to 6.00. Also, the pIC50 in assay [2] is 5.30 to 6.00.
In the case of `NCC1CN(c2nc3ccc(Cl)cc3n2Cc2ccc(F)c(Cl)c2)C1` [Example 76, (1-(6-chloro-1-(3-chloro-4-fluorobenzyl)-1H-benzo[d]imidazol-2-yl)azetidin-3-yl)methanamine trifluoroacetate], the pKi at Son of Sevenless (SOS) was more than 6.30. This molecule gave a pEC50 in assay [1] of more than 6.00. Besides, the pIC50 in assay [2] was 5.30 to 6.00.
On to `Fc1ccc(Cn2c(NC3CCNC3)nc3ccc(Cl)cc32)cc1Cl` (stereo not drawn) [Example 77, 6-chloro-1-(3-chloro-4-fluorobenzyl)-N-(pyrrolidin-3-yl)-1H-benzo[d]imidazol-2-amine trifluoroacetate], for which, on Son of Sevenless (SOS), the pKi is 6.00 to 6.30. Moreover, in assay [1], the negative logarithm of the EC50 (pEC50) was more than 6.00. In addition, in assay [2], the pIC50 was 5.30 to 6.00.
For `C=C[C@H](N)c1cc(Cl)cc2c1nc(NCCN)n2Cc1cc(C)c(F)c(C)c1` [Example 156, (S)—N^1-(4-(1-aminoallyl)-6-chloro-1-(4-fluoro-3,5-dimethylbenzyl)-1H-benzo[d]imidazol-2-yl)ethane-1,2-diamine trifluoroacetate] the same measures were more than 6.30, more than 6.00 and 5.30 to 6.00.
With `Cc1cc2c(nc(N3CCNCC3)n2Cc2ccc(F)c(Cl)c2)c(-c2ccccc2C(C)C)c1C` [Example 109, 1-(3-chloro-4-fluorobenzyl)-4-(2-isopropylphenyl)-5,6-dimethyl-2-(piperazin-1-yl)-1H-benzo[d]imidazole], the negative logarithm of the Ki (pKi) on Son of Sevenless (SOS) is 6.00 to 6.30. The pEC50 in assay [1] was 5.30 to 6.00. Moreover, the pIC50 in assay [2] (setting [3]) was 5.30 to 6.00.
`Cc1cc(C2NCCc3c2[nH]c2ccccc32)c2nc(N3CCNCC3)n(Cc3cc(C)c(F)c(C)c3)c2c1` (stereo not drawn) [Example 139, 1-(1-(4-fluoro-3,5-dimethylbenzyl)-6-methyl-2-(piperazin-1-yl)-1H-benzo[d]imidazol-4-yl)-2,3,4,9-tetrahydro-1H-pyrido[3,4-b]indole trifluoroacetate]: the pKi on Son of Sevenless (SOS) is 5.30 to 6.00. In assay [1], this molecule gave a pEC50 of 5.30 to 6.00. Also, the pIC50 in assay [2] is 5.30 to 6.00.
As for `Cc1cc(-c2cccc3c2nc(N2CCNCC2)n3Cc2ccc(F)c(Cl)c2)n(C)n1` [Example 93, 1-(3-chloro-4-fluorobenzyl)-4-(1,3-dimethyl-1H-pyrazol-5-yl)-2-(piperazin-1-yl)-1H-benzo[d]imidazole], the negative logarithm of the Ki (pKi) at Son of Sevenless (SOS) is 5.30 to 6.00. Moreover, the pEC50 in assay [1] is 5.30 to 6.00. Moreover, the pIC50 in assay [2] (setting [3]) is 5.30 to 6.00.
For `COc1ccc(-c2c(C)c(C)cc3c2nc(N2CCNCC2)n3Cc2ccc(F)c(Cl)c2)cc1OC` [Example 110, 1-(3-chloro-4-fluorobenzyl)-4-(3,4-dimethoxyphenyl)-5,6-dimethyl-2-(piperazin-1-yl)-1H-benzo[d]imidazole], at Son of Sevenless (SOS), the pKi was 5.30 to 6.00. The molecule further gave a negative logarithm of the EC50 (pEC50) in assay [1] of 5.30 to 6.00. Also, the pIC50 in assay [2] (setting [3]) is 5.30 to 6.00.
Consider `CC(C)c1ccccc1-c1cccc2c1nc(N1CCNCC1)n2Cc1ccc(F)c(Cl)c1` [Example 94, 1-(3-chloro-4-fluorobenzyl)-4-(2-isopropylphenyl)-2-(piperazin-1-yl)-1H-benzo[d]imidazole], for which, on Son of Sevenless (SOS), the negative logarithm of the Ki (pKi) was 5.30 to 6.00. The molecule also had a pEC50 in assay [1] of 5.30 to 6.00. Moreover, the pIC50 in assay [2] (setting [3]) was 5.30 to 6.00.
Turning to `CCc1cc(Cn2c(N3CCNCC3)nc3cc(C)c(C)cc32)ccc1F` [Example 50, 1-(3-ethyl-4-fluorobenzyl)-5,6-dimethyl-2-(piperazin-1-yl)-1H-benzo[d]imidazole trifluoroacetate], the pKi at Son of Sevenless (SOS) was less than 5.30. The molecule further showed a pEC50 in assay [1] of 5.30 to 6.00. Also, in assay [2], the pIC50 was 5.30 to 6.00.
For `CCc1cc(Cn2c(N3CCNCC3)nc3cc(C)c(C)cc32)cc(CC)c1F` [Example 49, 1-(3,5-diethyl-4-fluorobenzyl)-5,6-dimethyl-2-(piperazin-1-yl)-1H-benzo[d]imidazole trifluoroacetate], at Son of Sevenless (SOS), the pKi was less than 5.30. This molecule had a negative-log EC50 (pEC50) in assay [1] of 5.30 to 6.00. Moreover, the pIC50 in assay [2] is 5.30 to 6.00.
As for `Cc1cnc2nc(N3CC(CN)C3)n(Cc3ccc(F)c(C)c3)c2c1` [Example 248, (1-(1-(4-fluoro-3-methylbenzyl)-6-methyl-1H-imidazo[4,5-b]pyridin-2-yl)azetidin-3-yl)methanamine], at Son of Sevenless (SOS), the negative logarithm of the Ki (pKi) is 6.00 to 6.30. In assay [1], this molecule showed a pEC50 of more than 6.00. Moreover, in assay [2] (setting [3]), the pIC50 is 4.70 to 5.30.
Regarding `Cc1cc2c(nc(N3CCNCC3)n2Cc2ccc(Cl)cc2)c(-c2ccccc2F)c1C` [Example 107, 1-(4-chlorobenzyl)-4-(2-fluorophenyl)-5,6-dimethyl-2-(piperazin-1-yl)-1H-benzo[d]imidazole trifluoroacetate], the pKi on Son of Sevenless (SOS) is 5.30 to 6.00. Also, the negative logarithm of the EC50 (pEC50) in assay [1] was 5.30 to 6.00. In addition, the pIC50 in assay [2] was 4.70 to 5.30.
For the molecule `CCCNCc1c(C)c(C)cc2c1nc(N1CCNCC1)n2Cc1cc(C)c(F)c(C)c1` [Example 132, N-((1-(4-fluoro-3,5-dimethylbenzyl)-5,6-dimethyl-2-(piperazin-1-yl)-1H-benzo[d]imidazol-4-yl)methyl)propan-1-amine trifluoroacetate], the pKi at Son of Sevenless (SOS) was 5.30 to 6.00. The pEC50 in assay [1] is more than 6.00. Also, the pIC50 in assay [2] was 5.30 to 6.00.
